Assay results: EP0516978A1, “Enantiomers of substituted (aminophenyl)-heteroarylethylamines, a method for their preparation, and pharmaceutical compositions containing these compounds” (HOECHST AKTIENGESELLSCHAFT, priority 1991, dated 1992)

Legend:
[1] = system: Mongolischen Gerbil; test: Neuroprotection after forebrain ischaemia in the gerbil (5-minute bilateral carotid artery occlusion); format: in vivo; conditions: treated vs. control group; for Verhaltensscore (% Änderung): 5-step neurological score over 45 min after ischaemia; for Zellnekrosen (% Änderung): 5-step histopathological score, hippocampal CA₁ region, 7 days later
Description: Anhand der nachfolgend beschriebenen Versuchsdurchführungen (K. Rudolphi et. al, J. Cereb. Blood Flow Metab., 7:74. 1987) ergibt sich, daß die unten aufgeführten Verbindungen in der Lage sind, zerebrale Nervenzellen gegen eine schwere ischämische Schädigung zu schützen.
Bei 20 männlichen Mongolischen Gerbils werden unter Halothan-Narkose durch beidseitigen Verschluß der A. Carotis mittels Aneurysmaclips eine 5-minütige Ischämie des Vorderhirns mit anschließender Rezirkulation erzeugt. Die Tiere werden 45 Minuten lang nach der Ischämie beobachtet und das Ausmaß der neurologischen Symptome mittels eines 5-stufigen Verhaltensscores bestimmt. 7 Tage später werden die Tiere unter Halothan-Narkose dekapitiert, die Gehirne in Carnoy-Lösung immersionsfixiert und das Ausmaß des Neuronenschadens in der CA₁-Region des Hippocampus mit Hilfe eines 5-stufigen histopathologischen Scores "blind" bestimmt. Die Prüfsubstanzen werden je einer Gruppe von 10 Gerbils intraperitoneal oder per os 15 Minuten vor der Ischämie verabreicht. Pro Testsubstanz wird eine ischämische Kontrollgruppe von ebenfalls 10 Tieren mit dem jeweiligen Lösungsmittel behandelt. Die Ergebnisse sind in Tabelle 6 als % Änderung des mittleren neurologsichen Verhaltensscores bzw. histopathologischen Scores (Summe der individuellen Scores/Anzahl der Tiere) der behandelten vs. Kontrollgruppe zusammengefaßt. Tabelle 1
Je höher der Verhaltensscore (-% Änderungen), desto besser ist die Erholung der Tiere nach Ischämie.

[2] = system: NMRI-Mäusen; test: CNS tolerability in the healthy animal (mouse), behavioural observation; format: in vivo, Maus; conditions: for Symptome: phenomena observed 3 hours after application; for Dosis, ab der eine ZNS erregende Aktivität, die als unverträglich gilt, auftritt: mouse, i.p., dose from which the behaviour-altering CNS excitation is seen
Method: Adulten männlichen NMRI-Mäusen werden die zu untersuchenden Substanzen in Dosen von 0,1-100 mg/kg i.p. in einem Volumen von 10 ml/kg verabreicht. Pro Versuchsdosis werden drei Tiere eingesetzt, wobei eine Gruppe als Placebo nur mit dem Lösungsmittel behandelt (Kontrolle) mitgeführt wird.
Die Placebogruppe dient dabei zur zeitgleichen Verhaltensfeststellung, parallel zur Versuchsgruppe. Sofort nach der Applikation werden die Tiere in Dreiergruppen in Beobachtungskäfige gesetzt und drei Stunden lang am ersten Tag beobachtet. Anschließend werden die Tiere gefüttert, getränkt und weitere sechs Tage, jeweils nach 24 Stunden, für eine halbe Stunde beobachtet. Dabei ergaben sich folgende Befunde: Tabelle 2

[3] = 30 mg/kg ip. 15 min before 5-min forebrain ischaemia
[4] = 30 mg/kg ip. 15 min before ischaemia

CNC(Cc1ccccc1N)c1sccc1C (racemic) [Razemisch II, 2-Amino-N-methyl-α-(3-methyl-2-thienyl)benzylethanamin]
Verhaltensscore (% Änderung) [1, 3]: -15 % Änderung
Zellnekrosen (% Änderung) [1, 4]: -75 % Änderung
Symptome ([2]; dose 0,1-3 mg/kg i.p.): vermehrter Putztrieb
Symptome ([2]; dose 1,0-3,0 mg/kg i.p.): Unruhe, Erregung, vermehrter Putztrieb
Symptome ([2]; dose 10-100 mg/kg i.p.): Taumeln, vermehrter Putztrieb, Unruhe, Erregung
Dosis, ab der eine ZNS erregende Aktivität, die als unverträglich gilt, auftritt [2]: ≥ 10 mg/kg i. p.

CNC(Cc1ccccc1N)c1sccc1C (single isomer, unassigned; (+)) [(+)II, 2-Amino-N-methyl-α-(3-methyl-2-thienyl)benzylethanamin]
Verhaltensscore (% Änderung) [1, 3]: -51 % Änderung
Zellnekrosen (% Änderung) [1, 4]: -90 % Änderung
Symptome ([2]; dose 0,1-0,3 mg/kg i.p.): o. B.
Symptome ([2]; dose 1,0-3,0 mg/kg i.p.): kurzandauernde Erregung
Symptome ([2]; dose 10-100 mg/kg i.p.): vermehrter Putztrieb, Unruhe, Erregung, Taumeln
Dosis, ab der eine ZNS erregende Aktivität, die als unverträglich gilt, auftritt ([2]; listed as (+)-Form): ≥ 10 mg/kg i. p.

CNC(Cc1ccccc1N)c1sccc1C (single isomer, unassigned; (-)) [(-)II, 2-Amino-N-methyl-α-(3-methyl-2-thienyl)benzylethanamin]
Verhaltensscore (% Änderung) [1, 3]: -32 % Änderung
Verhaltensscore (% Änderung) ([1]; 60 mg/kg ip. 15 min before 5-min forebrain ischaemia): -75 % Änderung
Zellnekrosen (% Änderung) ([1]; 60 mg/kg ip. 15 min before ischaemia): -23 % Änderung
Symptome ([2]; dose 0,01-0,3 mg/kg i.p.): o. B.
Symptome ([2]; dose 1,0-3,0 mg/kg i.p.): o. B.
Symptome ([2]; dose 10-100 mg/kg i.p.): Unruhe, vermehrter Putztrieb
Dosis, ab der eine ZNS erregende Aktivität, die als unverträglich gilt, auftritt ([2]; listed as (-)-Form): ≥ 100 mg/kg i. p.
